Patent publication US20250353891A1 (MEDIMMUNE LIMITED, priority 2022, published 2025)
Where two headings read alike, the source gives them in different places. Starred links: 1 amine or outer side, 2 acyl side, 3 side chain; linkers in the order of their positions; H or OH if unused. Non-standard residues stand in square brackets, D forms with d. Residues, ends and D or L forms follow the SMILES beside them. Groups on a side chain read outwards from the residue. *: point of attachment. C20 diacid = O=C(O)CCCCCCCCCCCCCCCCCCC(=O)*; C18 diacid = O=C(O)CCCCCCCCCCCCCCCCC(=O)*; γGlu = O=C(O)[C@H](CCC(=O)[*:2])N[*:1]; Stearoyl = CCCCCCCCCCCCCCCCCC(=O)*; αMeF = C[C@](N)(Cc1ccccc1)C(=O)O; AEEA = NCCOCCOCC(=O)O; Aib = CC(C)(N)C(=O)O

Columns and labels:
[1] = Mouse acute food intake study; type: in vivo; conditions: male C57Bl/6 mice, s.c., cumulative food intake at 24 hr vs vehicle
Description: Male C57Bl/6 mice obtained from Jackson Laboratories or Charles River at 8-9 weeks of age and were housed one per cage in BioDaq (Research Diets) cages. Mice were placed on Alpha Dri bedding, standard chow diet (Envigo, 2018) and given water pouches. Mice were allowed to acclimate for 1-2 weeks. Body weight was measured to ensure appropriate acclimation. After acclimation, mice were sham dosed a minimum of 2 times prior to initiation of food intake study. On study day, mice were placed in clean cage bottoms, weighed, and fasted for 6-8 hours. Mice were sorted into groups based on average 24-hour food intake data and body weight. 1-2 hours prior to lights out, mice were dosed subcutaneously with one vehicle or test peptide dissolved in an appropriate vehicle at 5 mL/kg. Mice were left undisturbed and allowed access to food and water for 48 hours. Automated food intake was monitored in the BioDaq system was monitored during this time. Discrete food intake data was exported into MS Excel from which cumulative food intake data was generated and analyzed.

[2] = target: human glucagon receptor (hGCGR) (Homo sapiens, UniProt P47871); assay: cAMP production (HTRF) in CHO cells expressing hGCGR; type: cell-based; set-up: expressed in transfected cells; conditions: geometric mean, read-out: hGluc-R EC50
human glucagon receptor (hGCGR), sequence (P47871 26-477): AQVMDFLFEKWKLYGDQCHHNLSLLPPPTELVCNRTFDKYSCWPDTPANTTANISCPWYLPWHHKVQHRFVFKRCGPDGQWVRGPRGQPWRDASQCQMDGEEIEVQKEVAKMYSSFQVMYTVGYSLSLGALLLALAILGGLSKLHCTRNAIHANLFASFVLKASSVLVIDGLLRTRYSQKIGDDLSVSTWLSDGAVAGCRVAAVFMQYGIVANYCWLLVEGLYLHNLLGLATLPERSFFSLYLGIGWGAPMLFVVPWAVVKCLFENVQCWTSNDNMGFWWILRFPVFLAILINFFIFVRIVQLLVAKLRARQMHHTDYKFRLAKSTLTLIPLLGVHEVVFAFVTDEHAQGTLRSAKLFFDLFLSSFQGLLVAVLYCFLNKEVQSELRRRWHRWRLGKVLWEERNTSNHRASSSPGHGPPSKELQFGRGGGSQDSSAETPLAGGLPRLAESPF
How it was run: (§1)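 Cells were resuspended in assay buffer at batch-optimized density, typically 1×10^5 cells/mL for hGLP-1R and 2×10^5 cells/mL for hGCGR. After 30 min incubation at room temperature with compound, cAMP was measured by two-step HTRF. EC50 values came from 4-parameter logistic fits of % Delta F.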

[3] = target: human GLP-1 receptor (hGLP-1R) (Homo sapiens, UniProt P43220); assay: cAMP production (HTRF) in CHO cells expressing hGLP-1R; type: cell-based; set-up: expressed in transfected cells; conditions: for EC50: geometric mean, read-out: hGLP-1R EC50; for % Relative Potency Ratio: % GLP-1R activity relative to GLP-1 / % GlucR activity relative to glucagon
human GLP-1 receptor (hGLP-1R), sequence (P43220 24-463): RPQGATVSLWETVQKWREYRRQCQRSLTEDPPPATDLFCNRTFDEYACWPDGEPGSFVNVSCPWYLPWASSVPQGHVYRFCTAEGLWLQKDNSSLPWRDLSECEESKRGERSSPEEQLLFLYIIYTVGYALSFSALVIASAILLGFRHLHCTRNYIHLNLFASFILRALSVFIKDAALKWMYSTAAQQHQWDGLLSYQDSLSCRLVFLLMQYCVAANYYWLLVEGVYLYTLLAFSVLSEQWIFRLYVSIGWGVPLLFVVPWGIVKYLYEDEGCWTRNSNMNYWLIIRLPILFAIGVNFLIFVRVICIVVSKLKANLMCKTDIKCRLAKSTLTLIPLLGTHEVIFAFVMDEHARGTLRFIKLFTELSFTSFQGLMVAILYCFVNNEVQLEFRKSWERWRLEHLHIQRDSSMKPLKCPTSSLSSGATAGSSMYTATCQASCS
How it was run: as §1

[4] = Table 7, peptides modified at position 20, cAMP in CHO hGCGR cells
[5] = Table 7, peptides modified at position 20, cAMP in CHO hGLP-1R cells

SMILES: CCCCCCCCCCCCCCCCCC(=O)N[C@@H](CCC(=O)N[C@@H](CCC(=O)NCCOCCOCC(=O)NCCOCCOCC(=O)NCCCC[C@H](NC(=O)[C@H](C)NC(=O)[C@H](C)NC(=O)[C@H](CCCNC(=N)N)NC(=O)[C@H](CO)NC(=O)[C@H](CC(=O)O)NC(=O)[C@H](CC(C)C)NC(=O)[C@](C)(Cc1ccccc1)NC(=O)[C@H](CCCCN)NC(=O)[C@H](CO)NC(=O)[C@@H](NC(=O)[C@H](CC(=O)O)NC(=O)[C@H](CO)NC(=O)[C@@H](NC(=O)[C@](C)(Cc1ccccc1)NC(=O)[C@H](CO)NC(=O)CNC(=O)[C@H](Cc1c[nH]cn1)NC(=O)C(C)(C)NC(=O)[C@@H](N)Cc1c[nH]cn1)[C@@H](C)O)C(C)C)C(=O)N[C@@H](CC(=O)O)C(=O)N[C@@](C)(Cc1ccccc1)C(=O)N[C@H](C(=O)N[C@@H](CCC(N)=O)C(=O)NC(C)(C)C(=O)N[C@H](C(=O)N[C@@H](C)C(=O)N[C@@H](CC(N)=O)C(=O)N[C@H](C(N)=O)[C@@H](C)O)[C@@H](C)CC)C(C)C)C(=O)O)C(=O)O [Peptide 257] (H-H[Aib]HGS[αMeF]TSDVSK[αMeF]LDSRAAK([AEEA-AEEA-γGlu-γGlu-Stearoyl])D[αMeF]VQ[Aib]IANT-NH2)
- 24 hr % Vehicle Food Intake ([1]; dose 3 nmol/kg): 94.7%
- 24 hr % Vehicle Food Intake ([1]; dose 10 nmol/kg): 96.5%
- EC50 [2, 4]: 0.00166 nM
- EC50 [3, 5]: 0.00735 nM
- % Relative Potency Ratio ([3]; Table 7): 0.4

SMILES: CC[C@H](C)[C@H](NC(=O)C(C)(C)NC(=O)[C@H](CCC(N)=O)NC(=O)[C@@H](NC(=O)[C@](C)(Cc1ccccc1)NC(=O)[C@H](CC(=O)O)NC(=O)[C@H](CCCCNC(=O)COCCOCCNC(=O)COCCOCCNC(=O)CC[C@H](NC(=O)CCCCCCCCCCCCCCCCC(=O)O)C(=O)O)NC(=O)[C@H](C)NC(=O)[C@H](C)NC(=O)[C@H](CCCNC(=N)N)NC(=O)[C@H](CO)NC(=O)[C@H](CC(=O)O)NC(=O)[C@H](CC(C)C)NC(=O)[C@](C)(Cc1ccccc1)NC(=O)[C@H](CCCCN)NC(=O)[C@H](CO)NC(=O)[C@@H](NC(=O)[C@H](CC(=O)O)NC(=O)[C@H](CO)NC(=O)[C@@H](NC(=O)[C@](C)(Cc1ccccc1)NC(=O)[C@H](CO)NC(=O)CNC(=O)[C@H](Cc1c[nH]cn1)NC(=O)C(C)(C)NC(=O)[C@@H](N)Cc1c[nH]cn1)[C@@H](C)O)C(C)C)C(C)C)C(=O)N[C@@H](C)C(=O)N[C@@H](CCC(=O)O)C(=O)N[C@H](C(N)=O)[C@@H](C)O [Peptide 300] (H-H[Aib]HGS[αMeF]TSDVSK[αMeF]LDSRAAK([AEEA-AEEA-γGlu-C18 diacid])D[αMeF]VQ[Aib]IAET-NH2)
- 24 hr % Vehicle Food Intake ([1]; dose 10 nmol/kg): 45.2%
- EC50 [2, 4]: 0.0184 nM
- EC50 [3, 5]: 0.0197 nM
- % Relative Potency Ratio ([3]; Table 7): 1.8

SMILES: CC[C@H](C)[C@H](NC(=O)C(C)(C)NC(=O)[C@H](C)NC(=O)[C@@H](NC(=O)[C@](C)(Cc1ccccc1)NC(=O)[C@H](CC(=O)O)NC(=O)[C@H](CCCCNC(=O)COCCOCCNC(=O)COCCOCCNC(=O)CC[C@H](NC(=O)CC[C@H](NC(=O)CCCCCCCCCCCCCCCCCCC(=O)O)C(=O)O)C(=O)O)NC(=O)[C@H](C)NC(=O)[C@H](C)NC(=O)[C@H](CCCNC(=N)N)NC(=O)[C@H](CO)NC(=O)[C@H](CC(=O)O)NC(=O)[C@H](CC(C)C)NC(=O)[C@](C)(Cc1ccccc1)NC(=O)[C@H](CCCCN)NC(=O)[C@H](CO)NC(=O)[C@@H](NC(=O)[C@H](CC(=O)O)NC(=O)[C@H](CO)NC(=O)[C@@H](NC(=O)[C@](C)(Cc1ccccc1)NC(=O)[C@H](CO)NC(=O)CNC(=O)[C@H](Cc1c[nH]cn1)NC(=O)C(C)(C)NC(=O)[C@@H](N)Cc1c[nH]cn1)[C@@H](C)O)C(C)C)[C@@H](C)CC)C(=O)N[C@@H](C)C(=O)N[C@@H](CCC(=O)O)C(=O)N[C@H](C(N)=O)[C@@H](C)O [Peptide 302] (H-H[Aib]HGS[αMeF]TSDVSK[αMeF]LDSRAAK([AEEA-AEEA-γGlu-γGlu-C20 diacid])D[αMeF]IA[Aib]IAET-NH2)
- 24 hr % Vehicle Food Intake ([1]; dose 30 nmol/kg): 46.4%
- EC50 [2, 4]: 0.271 nM
- EC50 [3, 5]: 0.151 nM
- % Relative Potency Ratio ([3]; Table 7): 3.5

SMILES: CC[C@H](C)[C@H](NC(=O)[C@H](Cc1c[nH]c2ccccc12)NC(=O)[C@H](CCCCNC(=O)COCCOCCNC(=O)COCCOCCNC(=O)CC[C@H](NC(=O)CC[C@H](NC(=O)CCCCCCCCCCCCCCCCC(=O)O)C(=O)O)C(=O)O)NC(=O)[C@@H](NC(=O)[C@H](Cc1ccccc1)NC(=O)[C@H](CC(=O)O)NC(=O)[C@H](CCC(N)=O)NC(=O)[C@H](C)NC(=O)[C@H](C)NC(=O)[C@H](CCCNC(=N)N)NC(=O)[C@H](CO)NC(=O)[C@H](CC(=O)O)NC(=O)[C@H](CC(C)C)NC(=O)[C@](C)(Cc1ccccc1)NC(=O)[C@H](CCCCN)NC(=O)[C@H](CO)NC(=O)[C@@H](NC(=O)[C@H](CC(=O)O)NC(=O)[C@H](CO)NC(=O)[C@@H](NC(=O)[C@](C)(Cc1ccccc1)NC(=O)[C@H](CO)NC(=O)CNC(=O)[C@H](Cc1c[nH]cn1)NC(=O)C(C)(C)NC(=O)[C@@H](N)Cc1c[nH]cn1)[C@@H](C)O)C(C)C)C(C)C)C(=O)N[C@@H](C)C(=O)N[C@@H](CC(N)=O)C(=O)N[C@H](C(=O)NCC(=O)NCC(N)=O)[C@@H](C)O [Peptide 364] (H-H[Aib]HGS[αMeF]TSDVSK[αMeF]LDSRAAQDFVK([AEEA-AEEA-γGlu-γGlu-C18 diacid])WIANTGG-NH2)
- 24 hr % Vehicle Food Intake ([1]; dose 10 nmol/kg): 63.7%
- EC50 ([2]; cAMP, CHO cells, 0.1% BSA): 0.0304 nM
- % Relative Potency Ratio [3]: 2.6
- EC50 ([3]; cAMP, CHO cells, 0.1% BSA): 0.0234 nM

SMILES: CC[C@H](C)[C@H](NC(=O)C(C)(C)NC(=O)[C@H](CCCCNC(=O)COCCOCCNC(=O)COCCOCCNC(=O)CC[C@H](NC(=O)CCCCCCCCCCCCCCCCC(=O)O)C(=O)O)NC(=O)[C@@H](NC(=O)[C@H](Cc1ccccc1)NC(=O)[C@H](CC(=O)O)NC(=O)[C@H](CCC(N)=O)NC(=O)[C@H](C)NC(=O)[C@H](C)NC(=O)[C@H](CCCNC(=N)N)NC(=O)[C@H](CO)NC(=O)[C@H](CC(=O)O)NC(=O)[C@H](CC(C)C)NC(=O)[C@](C)(Cc1ccccc1)NC(=O)[C@H](CCCCN)NC(=O)[C@H](CO)NC(=O)[C@@H](NC(=O)[C@H](CC(=O)O)NC(=O)[C@H](CO)NC(=O)[C@@H](NC(=O)[C@](C)(Cc1ccccc1)NC(=O)[C@H](CO)NC(=O)CNC(=O)[C@H](Cc1c[nH]cn1)NC(=O)C(C)(C)NC(=O)[C@@H](N)Cc1c[nH]cn1)[C@@H](C)O)C(C)C)C(C)C)C(=O)N[C@@H](C)C(=O)N[C@@H](CC(N)=O)C(=O)N[C@H](C(N)=O)[C@@H](C)O [Peptide 366] (H-H[Aib]HGS[αMeF]TSDVSK[αMeF]LDSRAAQDFVK([AEEA-AEEA-γGlu-C18 diacid])[Aib]IANT-NH2; N-terminus assumed)
- 24 hr % Vehicle Food Intake ([1]; dose 10 nmol/kg): 83.5%
- EC50 ([2]; cAMP, CHO cells, 0.1% BSA): 0.0274 nM
- % Relative Potency Ratio [3]: 1.7
- EC50 ([3]; cAMP, CHO cells, 0.1% BSA): 0.031 nM
